Reference: US7482488B2, “Aryl and heteroaryl propene amides, derivatives thereof and therapeutic uses thereof” (Temple University - Of The Commonwealth System of Higher …, priority 2002, dated 2009)

Tests used:
Type in all cases: cell-based, human
DLD1 (colorectal cancer) = experiment: Effect on tumor cell lines: viable cell count by trypan blue exclusion, DLD1; details: DLD1 colorectal cancer cells; 100 nM to 10 μM; viable cells counted 96 hours after treatment
Experimental: (§1) The effect of the aromatic acrylamides on normal fibroblasts and on tumor cells was determined by the assay described by Latham et al.,Oncogene 12:827-837 (1996). Normal diploid lung human fibroblasts (HFL-1) or tumor cells (BT20(breast cancer), DLD1 (colorectal cancer), DU145 (prostate cancer and K562 (chronic myelogenous leukemia )) were plated in 6-well dishes at a cell density of 1.0 ×10^5cells per 35-mm^2 well. The plated cells were treated 24 hours later with a compound of the invention, dissolved in DMSO at multiple concentrations ranging from 100 nM to 10 μM. The total number of viable cells was determined 96 hours later by trypsinizing the wells and counting the number of viable cells, as determined by trypan blue exclusion, using a hemacytometer. Normal HFL cells were treated with the same compounds under the same conditions of concentration and time.
(§2) Representative examples of activities of compounds of the invention in cell lines: BT20(breast cancer), DLD1 (colorectal cancer), DU145 (prostate cancer and K562 (chronic myelogenous leukemia ) are listed in Table 5.

BT20 (breast cancer) = experiment: Effect on tumor cell lines: viable cell count by trypan blue exclusion, BT20; details: BT20 breast cancer cells; 100 nM to 10 μM; viable cells counted 96 hours after treatment
Experimental: as §1, §2

[1] = test system: K562 (chronic myelogenous leukemia); experiment: Effect on tumor cell lines: viable cell count by trypan blue exclusion, K562; details: K562 chronic myelogenous leukemia cells; 100 nM to 10 μM; viable cells counted 96 hours after treatment
Experimental: as §1, §2

DU145 (prostate cancer) = experiment: Effect on tumor cell lines: viable cell count by trypan blue exclusion, DU145; details: DU145 prostate cancer cells; 100 nM to 10 μM; viable cells counted 96 hours after treatment
Experimental: as §1, §2

Row | SMILES | DLD1 activity (DLD1 (colorectal cancer)) | BT20 activity (BT20 (breast cancer)) | K562 activity [1] | DU145 activity (DU145 (prostate cancer))
1 | COc1ccc(NC(=O)/C=C/c2c(OC)cc(OC)cc2OC)cc1 [Example 1, (E)-N-(4-Methoxyphenyl)-3-(2,4,6-trimethoxyphenyl)-2-propen-amide] | +++ (+++ denotes activity at 100 nM) | +++ (+++ denotes activity at 100 nM) | +++ (+++ denotes activity at 100 nM) | +++ (+++ denotes activity at 100 nM)
2 | COc1ccc(NC(=O)/C=C/c2c(OC)cccc2OC)cc1 [Example 2, (E)-N-(4-Methophenyl)-3-(2,6-dimethoxypheyl)-2-propenamide] | + (+ denotes activity at >10 μM) | + (+ denotes activity at >10 μM) | + (+ denotes activity at >10 μM) | + (+ denotes activity at >10 μM)
3 | COc1ccc(NC(=O)/C=C/c2cc(OC)c(OC)c(OC)c2)cc1N [Example 4, (E)-N-(4-Methoxy-3-aminophenyl)-3-(3,4,5-trimethoxyphenyl)-2-propenamide] | + (+ denotes activity at >10 μM) | + (+ denotes activity at >10 μM) | + (+ denotes activity at >10 μM) | + (+ denotes activity at >10 μM)
4 | COc1cc(OC)c(/C=C/C(=O)Nc2ccc(OC)c(N)c2)c(OC)c1 [Example 6, (E)-N-(4-methoxy-3-aminophenyl)-3-(2,4,6-trimethoxyphenyl)-2-propenamide] | +++ (+++ denotes activity at 100 nM) | +++ (+++ denotes activity at 100 nM) | +++ (+++ denotes activity at 100 nM) | +++ (+++ denotes activity at 100 nM)
5 | COc1ccc(NC(=O)/C=C/c2c(F)c(F)c(F)c(F)c2F)cc1[N+](=O)[O-] [Example 7, (E)-N-(4-Methoxy-3-nitrophenyl)-3-(2,3,4,5,6-pentafluorophenyl)-2-propenamide] | ++ (++ denotes activity at 10 μM) | ++ (++ denotes activity at 10 μM) | ++ (++ denotes activity at 10 μM) | ++ (++ denotes activity at 10 μM)
6 | COc1ccc(NC(=O)/C=C/c2ccc(N)c(F)c2)cc1N [Example 9, (E)-N-(4-Methoxy-3-aminophenyl)-3-(3-fluoro-4-aminophenyl)-2-propenamide] | ++ (++ denotes activity at 10 μM) | ++ (++ denotes activity at 10 μM) | ++ (++ denotes activity at 10 μM) | ++ (++ denotes activity at 10 μM)
7 | COc1cc(OC)c(/C=C/C(=O)Nc2ccc(OC)c(NC(=O)C(F)(F)F)c2)c(OC)c1 [Example 10, (E)-N-(4-Methoxy-3-trifluoroacetamidophenyl)-3-(2,4,6-trimethoxyphenyl)-2-propenamide] | +++ (+++ denotes activity at 100 nM) | +++ (+++ denotes activity at 100 nM) | +++ (+++ denotes activity at 100 nM) | +++ (+++ denotes activity at 100 nM)
8 | COc1cc(OC)c(/C=C/C(=O)Nc2ccc(OC)c(O)c2)c(OC)c1 [Example 11, (E)-N-(3-Hydoxy-4-methoxyphenyl)-3-(2,4,6-trimethoxyphenyl)-2-propenamide] | ++++ (++++ denotes activity at <100 nm) | ++++ (++++ denotes activity at <100 nm) | ++++ (++++ denotes activity at <100 nm) | ++++ (++++ denotes activity at <100 nm)
9 | COc1cc(/C=C/C(=O)Nc2ccc(Br)cc2)ccc1F [Example 12, (E)-N-(4-Bromophenyl)-3-(3-methoxy-4fluorophenyl)-2-propenamide] | ++ (++ denotes activity at 10 μM) | ++ (++ denotes activity at 10 μM) | ++ (++ denotes activity at 10 μM) | ++ (++ denotes activity at 10 μM)
10 | N#Cc1cc(/C=C/C(=O)Nc2ccc(Br)cc2)ccc1F [Example 13, (E)-N-(4-Bromophenyl)-3-(3-cyano-4-fluorophenyl)-2-propenamide] | ++ (++ denotes activity at 10 μM) | ++ (++ denotes activity at 10 μM) | ++ (++ denotes activity at 10 μM) | ++ (++ denotes activity at 10 μM)
